Source: ChEMBL document CHEMBL3137667, “[Drug-induced liver injury; fourteenth updated edition of the bibliographic database of liver injuries and related drugs]” (Gastroenterol Clin Biol, 2004)
Structures can show the parent of a compound that is named as a salt.

Columns and labels:
[1] = Highest frequency of moderate liver toxicity observed during clinical trials, expressed as a percentage. [column '% BIOL' in source]; conditions: human
[2] = Highest frequency of acute liver toxicity observed during clinical trials, expressed as a percentage. [column '% AIGUE' in source]; conditions: human
[3] = Times to onset, minimal and maximal, observed in the indexed observations. [column 'DELAI' in source]; conditions: human
[4] = human, serum
[5] = human, serum; remark: listed apart in the source
[6] = human
[7] = human; remark: listed apart in the source
[8] = human; remark: listed apart in the source
[9] = human, serum, 4383 h
[10] = human; remark: listed apart in the source
[11] = human; remark: listed apart in the source
[12] = human; remark: listed apart in the source
[13] = human; remark: listed apart in the source
[14] = human; remark: listed apart in the source
[15] = human; remark: listed apart in the source
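For Hepatotoxicity (association with vascular disease) in this document: count of indexed literature references reporting vascular liver injury in humans, e.g. peliosis hepatitis, hepatic veno-occlusive disease or Budd-Chiari syndrome.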
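For Hepatotoxicity (benign tumour) in this document: value is a count of indexed literature references citing a benign tumour confirmed by histopathology.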
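For Hepatotoxicity (choleostasis) in this document: human cholestatic liver injury, shown by histopathology or by peak ALT or AST elevation over alkaline phosphatase ratio below 2, value counts indexed literature reports.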
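For Hepatotoxicity (chronic liver disease) in this document: chronic liver injury confirmed by histopathology or persistently raised serum aminotransferase activity beyond 6 months, value given as the count of indexed literature references.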
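For Hepatotoxicity (cirrhosis) in this document: value is a count of indexed literature references reporting cirrhosis confirmed by histopathology.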
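For Hepatotoxicity (cytolytic) in this document: human cytolytic liver injury, shown by histopathology or by a ratio above 5 of peak ALT or AST elevation to alkaline phosphatase elevation, value counts indexed references.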
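For Hepatotoxicity (granulomatous hepatitis) in this document: value is a count of indexed literature references reporting granulomatous liver disease confirmed by histopathology.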
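For Hepatotoxicity (malignant tumour) in this document: malignant tumour confirmed by histopathology, value gives the count of indexed literature references reporting it.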
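For Hepatotoxicity (severe hepatitis) in this document: human clinical data: severe hepatitis, meaning potentially life-threatening liver failure or clinically observed cases, the value counts how many indexed literature references report it.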
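For Hepatotoxicity (steatosis) in this document: steatosis confirmed by histopathology, value is the count of indexed references.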

## COc1cc2nc(N(C)CCCNC(=O)C3CCCO3)nc(N)c2cc1OC (stereo not given) [ALFUZOSIN]
[1]
  Hepatotoxicity (moderate): 0%
[2]
  Hepatotoxicity (acute): 0%
[3]
  Hepatotoxicity (time to onset): 9 months
[4]
  Hepatotoxicity (moderate): 0
[5]
  Hepatotoxicity (acute): 1
[6]
  Hepatotoxicity (cytolytic): 1
[7]
  Hepatotoxicity (choleostasis): 0
[8]
  Hepatotoxicity (severe hepatitis): 0
[9]
  Hepatotoxicity (chronic liver disease): 0
[10]
  Hepatotoxicity (cirrhosis): 0
[11]
  Hepatotoxicity (granulomatous hepatitis): 0
[12]
  Hepatotoxicity (association with vascular disease): 0
[13]
  Hepatotoxicity (steatosis): 0
[14]
  Hepatotoxicity (malignant tumour): 0
[15]
  Hepatotoxicity (benign tumour): 0

## C(=C\c1ccccc1)/CN1CCN(C(c2ccccc2)c2ccccc2)CC1 [CINNARIZINE]
[1]
  Hepatotoxicity (moderate): 0%
[2]
  Hepatotoxicity (acute): 0%
[3]
  Hepatotoxicity (time to onset): 3 weeks - 7 weeks
[4]
  Hepatotoxicity (moderate): 0
[5]
  Hepatotoxicity (acute): 2
[6]
  Hepatotoxicity (cytolytic): 0
[7]
  Hepatotoxicity (choleostasis): 2
[8]
  Hepatotoxicity (severe hepatitis): 0
[9]
  Hepatotoxicity (chronic liver disease): 0
[10]
  Hepatotoxicity (cirrhosis): 0
[11]
  Hepatotoxicity (granulomatous hepatitis): 0
[12]
  Hepatotoxicity (association with vascular disease): 0
[13]
  Hepatotoxicity (steatosis): 0
[14]
  Hepatotoxicity (malignant tumour): 0
[15]
  Hepatotoxicity (benign tumour): 0

## CN1CCC(=C2c3ccccc3CCc3sccc32)CC1 [PIZOTYLINE]
[1]
  Hepatotoxicity (moderate): 0%
[2]
  Hepatotoxicity (acute): 0%
[3]
  Hepatotoxicity (time to onset): 12 days
[4]
  Hepatotoxicity (moderate): 0
[5]
  Hepatotoxicity (acute): 1
[6]
  Hepatotoxicity (cytolytic): 0
[7]
  Hepatotoxicity (choleostasis): 1
[8]
  Hepatotoxicity (severe hepatitis): 0
[9]
  Hepatotoxicity (chronic liver disease): 0
[10]
  Hepatotoxicity (cirrhosis): 0
[11]
  Hepatotoxicity (granulomatous hepatitis): 0
[12]
  Hepatotoxicity (association with vascular disease): 0
[13]
  Hepatotoxicity (steatosis): 0
[14]
  Hepatotoxicity (malignant tumour): 0
[15]
  Hepatotoxicity (benign tumour): 0

## NN [HYDRAZINE]
[1]
  Hepatotoxicity (moderate): 0%
[2]
  Hepatotoxicity (acute): 0%
[3]
  Hepatotoxicity (time to onset): 3.5 months
[4]
  Hepatotoxicity (moderate): 0
[5]
  Hepatotoxicity (acute): 1
[6]
  Hepatotoxicity (cytolytic): 1
[7]
  Hepatotoxicity (choleostasis): 0
[8]
  Hepatotoxicity (severe hepatitis): 1
[9]
  Hepatotoxicity (chronic liver disease): 0
[10]
  Hepatotoxicity (cirrhosis): 0
[11]
  Hepatotoxicity (granulomatous hepatitis): 0
[12]
  Hepatotoxicity (association with vascular disease): 0
[13]
  Hepatotoxicity (steatosis): 0
[14]
  Hepatotoxicity (malignant tumour): 0
[15]
  Hepatotoxicity (benign tumour): 0

## CCNc1cccnc1N1CCN(C(=O)c2cc3cc(OC)ccc3[nH]2)CC1 [ATEVIRDINE MESYLATE]
[1]
  Hepatotoxicity (moderate): 0%
[2]
  Hepatotoxicity (acute): 6.7%
[3]
  Hepatotoxicity (time to onset): 3 weeks
[4]
  Hepatotoxicity (moderate): 0
[5]
  Hepatotoxicity (acute): 1
[6]
  Hepatotoxicity (cytolytic): 0
[7]
  Hepatotoxicity (choleostasis): 0
[8]
  Hepatotoxicity (severe hepatitis): 0
[9]
  Hepatotoxicity (chronic liver disease): 0
[10]
  Hepatotoxicity (cirrhosis): 0
[11]
  Hepatotoxicity (granulomatous hepatitis): 0
[12]
  Hepatotoxicity (association with vascular disease): 0
[13]
  Hepatotoxicity (steatosis): 0
[14]
  Hepatotoxicity (malignant tumour): 0
[15]
  Hepatotoxicity (benign tumour): 0

## COc1ccccc1OCCNCC(O)COc1cccc2[nH]c3ccccc3c12 (stereo not given) [CARVEDILOL]
[1]; Liver
  Hepatotoxicity (moderate): 0%
[2]; Liver
  Hepatotoxicity (acute): 0%
[3]
  Hepatotoxicity (time to onset): 6 months
[4]
  Hepatotoxicity (moderate): 0
[5]
  Hepatotoxicity (acute): 1
[6]
  Hepatotoxicity (cytolytic): 1
[7]
  Hepatotoxicity (choleostasis): 1
[8]; Liver
  Hepatotoxicity (severe hepatitis): 0
[9]
  Hepatotoxicity (chronic liver disease): 0
[10]
  Hepatotoxicity (cirrhosis): 0
[11]
  Hepatotoxicity (granulomatous hepatitis): 0
[12]
  Hepatotoxicity (association with vascular disease): 0
[13]
  Hepatotoxicity (steatosis): 0
[14]
  Hepatotoxicity (malignant tumour): 0
[15]
  Hepatotoxicity (benign tumour): 0

## CO[C@@]1(NC(=O)CSC[C@@H](N)C(=O)O)C(=O)N2C(C(=O)O)=C(CSc3nnnn3C)CS[C@@H]21 [CEFMINOX]
[1]; Liver
  Hepatotoxicity (moderate): 16.7%
[2]; Liver
  Hepatotoxicity (acute): 0.1%
[3]
  Hepatotoxicity (time to onset): 9 days
[4]
  Hepatotoxicity (moderate): 12
[5]
  Hepatotoxicity (acute): 2
[6]; Liver
  Hepatotoxicity (cytolytic): 0
[7]; Liver
  Hepatotoxicity (choleostasis): 0
[8]; Liver
  Hepatotoxicity (severe hepatitis): 0
[9]
  Hepatotoxicity (chronic liver disease): 0
[10]
  Hepatotoxicity (cirrhosis): 0
[11]; Liver
  Hepatotoxicity (granulomatous hepatitis): 0
[12]
  Hepatotoxicity (association with vascular disease): 0
[13]
  Hepatotoxicity (steatosis): 0
[14]
  Hepatotoxicity (malignant tumour): 0
[15]
  Hepatotoxicity (benign tumour): 0

## CN1C(C(=O)Nc2ccccn2)=C(O)c2sccc2S1(=O)=O [TENOXICAM]
[1]; Liver
  Hepatotoxicity (moderate): 27%
[2]; Liver
  Hepatotoxicity (acute): 0%
[3]
  Hepatotoxicity (time to onset): 3 days - 5 days
[4]
  Hepatotoxicity (moderate): 8
[5]
  Hepatotoxicity (acute): 3
[6]; Liver
  Hepatotoxicity (cytolytic): 2
[7]; Liver
  Hepatotoxicity (choleostasis): 2
[8]; Liver
  Hepatotoxicity (severe hepatitis): 0
[9]
  Hepatotoxicity (chronic liver disease): 0
[10]
  Hepatotoxicity (cirrhosis): 0
[11]; Liver
  Hepatotoxicity (granulomatous hepatitis): 0
[12]
  Hepatotoxicity (association with vascular disease): 0
[13]
  Hepatotoxicity (steatosis): 0
[14]
  Hepatotoxicity (malignant tumour): 0
[15]
  Hepatotoxicity (benign tumour): 0
